Reference: US20170334899A1, “AMINO-SUBSTITUTED ISOTHIAZOLES” (Bayer Pharma Aktiengesellschaft, priority 2014, published 2017)

What follows are molecules tested against T1, human kinase Mps-1 (Homo sapiens, UniProt P33981) (assay: Mps-1 kinase assay (TR-FRET)). Conditions: Mps-1 TR-FRET kinase assay; avg; read-out: Mps1 avg (IC50 [mol/l]).
T1 construct: N-terminally GST-tagged human full length recombinant Mps-1 kinase; GST (N); purchased Invitrogen, Karslruhe, Germany PV4071
T1 sequence (P33981 1-857): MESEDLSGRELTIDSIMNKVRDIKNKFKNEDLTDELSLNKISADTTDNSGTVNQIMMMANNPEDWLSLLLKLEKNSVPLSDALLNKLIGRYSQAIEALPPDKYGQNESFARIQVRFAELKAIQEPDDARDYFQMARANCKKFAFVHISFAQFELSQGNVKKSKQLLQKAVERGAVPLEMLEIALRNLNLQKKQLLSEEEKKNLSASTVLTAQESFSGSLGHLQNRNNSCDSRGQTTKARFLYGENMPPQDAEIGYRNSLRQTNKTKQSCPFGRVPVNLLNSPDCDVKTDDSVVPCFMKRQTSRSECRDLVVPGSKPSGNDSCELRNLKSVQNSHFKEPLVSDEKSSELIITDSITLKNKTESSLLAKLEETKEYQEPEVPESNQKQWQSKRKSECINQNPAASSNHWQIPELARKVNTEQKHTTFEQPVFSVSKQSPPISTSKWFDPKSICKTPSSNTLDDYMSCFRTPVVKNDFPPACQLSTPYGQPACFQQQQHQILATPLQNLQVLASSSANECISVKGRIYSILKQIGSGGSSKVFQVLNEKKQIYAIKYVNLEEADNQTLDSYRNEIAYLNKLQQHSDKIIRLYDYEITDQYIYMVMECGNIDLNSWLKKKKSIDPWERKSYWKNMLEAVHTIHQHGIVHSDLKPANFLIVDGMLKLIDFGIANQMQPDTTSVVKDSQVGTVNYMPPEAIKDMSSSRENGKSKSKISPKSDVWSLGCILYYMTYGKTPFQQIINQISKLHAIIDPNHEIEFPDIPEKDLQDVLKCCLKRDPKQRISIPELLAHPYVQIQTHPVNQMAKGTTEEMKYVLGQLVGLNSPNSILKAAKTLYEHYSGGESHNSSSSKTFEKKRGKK
Assay type: biochemical
Summary of the method: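 GST-tagged full-length recombinant human Mps-1 (~0.5 nM) pre-incubated 15 min with compound, then reacted 60 min at 22 °C with 10 μM ATP and 1 μM biotinylated peptide in Hepes pH 7.7 buffer. EDTA-stopped; TR-FRET (Eu anti-phospho-Ser/Thr to SA-XLent) 665/620 nm ratio normalised to no-inhibitor and no-enzyme controls.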
In the case of `Cc1nsc(Nc2cnc(C(F)(F)F)cn2)c1C(=O)Nc1ccc(F)c(OCCCNCC(F)(F)F)c1` [Example 306, N-(4-fluoro-3-{3-[(2,2,2-trifluoroethyl)amino]propoxy}phenyl)-3-methyl-5-{[5-(trifluoromethyl)pyrazin-2-yl]amino}-1,2-thiazole-4-carboxamide], the IC50 is reported as at least 20 µM.
`Cc1nsc(Nc2cnc3ccccc3n2)c1C(=O)Nc1ccc(N2CCN(C(=O)OC(C)(C)C)CC2)nc1` [Example 248, tert-butyl 4-[5-({[3-methyl-5-(quinoxalin-2-ylamino)-1,2-thiazol-4-yl]carbonyl}amino)pyridin-2-yl]piperazine-1-carboxylate] gave an IC50 of over 20 µM.
Work on `Cc1nsc(Nc2cncc(C(F)(F)F)n2)c1C(=O)Nc1ccc(C(=O)N2CCN(CC(F)F)CC2)cc1` [Example 273, N-(4-{[4-(2,2-difluoroethyl)piperazin-1-yl]carbonyl}phenyl)-3-methyl-5-{[6-(trifluoromethyl)pyrazin-2-yl]amino}-1,2-thiazole-4-carboxamide] yielded an IC50 of over 20 µM.
Work on `Cc1nsc(Nc2cnc(C(F)(F)F)cn2)c1C(=O)Nc1ccc(C(=O)NC2CN(CC(F)(F)F)C2)cc1` [Example 270, 3-methyl-N-(4-{[1-(2,2,2-trifluoroethyl)azetidin-3-yl]carbamoyl}phenyl)-5-{[5-(trifluoromethyl)pyrazin-2-yl]amino}-1,2-thiazole-4-carboxamide] yielded an IC50 of over 20 µM.
For `Cc1nsc(Nc2cnc(C(F)(F)F)cn2)c1C(=O)Nc1ccc(F)c(OCC2CCN(CCF)CC2)c1` [Example 309, N-(4-fluoro-3-{[1-(2-fluoroethyl)piperidin-4-yl]methoxy}phenyl)-3-methyl-5-{[5-(trifluoromethyl)pyrazin-2-yl]amino}-1,2-thiazole-4-carboxamide], the IC50 was at least 20 µM.
In the case of `Cc1nsc(Nc2cnc3ccccc3n2)c1C(=O)Nc1cccc(NS(=O)(=O)C2CN(CC(F)(F)F)C2)c1` [Example 285, 3-methyl-5-(quinoxalin-2-ylamino)-N-[3-({[1-(2,2,2-trifluoroethyl)azetidin-3-yl]sulfonyl}amino)phenyl]-1,2-thiazole-4-carboxamide], the IC50 is reported as over 20 µM.
`Cc1nsc(Nc2cnc(C(F)(F)F)cn2)c1C(=O)Nc1ccc(F)c(OCC2CCN(CC(F)F)C2)c1` (stereo not shown) [Example 316, N-(3-{[1-(2,2-difluoroethyl)pyrrolidin-3-yl]methoxy}-4-fluorophenyl)-3-methyl-5-{[5-(trifluoromethyl)pyrazin-2-yl]amino}-1,2-thiazole-4-carboxamide] showed an IC50 of at least 20 µM.
In the case of `Cc1nsc(Nc2cnc3ccccc3n2)c1C(=O)Nc1cccc(NS(=O)(=O)C2CN(CCC(F)(F)F)C2)c1` [Example 288, 3-methyl-5-(quinoxalin-2-ylamino)-N-[3-({[1-(3,3,3-trifluoropropyl)azetidin-3-yl]sulfonyl}amino)phenyl]-1,2-thiazole-4-carboxamide], the IC50 is reported as over 20 µM.
For `Cc1nsc(Nc2cc(C#N)ccn2)c1C(=O)Nc1ccc(OC2CCN(CC(F)(F)F)CC2)nc1` [Example 25, 5-[(4-Cyanopyridin-2-yl)amino]-3-methyl-N-(6-{[1-(2,2,2-trifluoroethyl)piperidin-4-yl]oxy}pyridin-3-yl)-1,2-thiazole-4-carboxamide], the IC50 was at least 20 µM.
In the case of `Cc1nsc(Nc2cnc(C(F)(F)F)cn2)c1C(=O)Nc1ccc(C(=O)N2CCN(C)CC2)cc1` [Example 262, 3-methyl-N-{4-[(4-methylpiperazin-1 yl)carbonyl]phenyl}-5-{[5-(trifluoromethyl)pyrazin-2-yl]amino}-1,2-thiazole-4-carboxamide], the IC50 is reported as over 20 µM.
`Cc1nsc(Nc2cncc(C(F)(F)F)n2)c1C(=O)Nc1ccc(C(=O)N2CCN(CCF)CC2)cc1` [Example 274, N-(4-{[4-(2-fluoroethyl)piperazin-1-yl]carbonyl}phenyl)-3-methyl-5-{[6-(trifluoromethyl)pyrazin-2-yl]amino}-1,2-thiazole-4-carboxamide] gave an IC50 of over 20 µM.
Work on `Cc1nsc(Nc2cnc(C(F)(F)F)cn2)c1C(=O)Nc1ccc(F)c(OCCCN(C)CC(F)F)c1` [Example 301, N-(3-{3-[(2,2-difluoroethyl)(methyl)amino]propoxy}-4-fluorophenyl)-3-methyl-5-{[5-(trifluoromethyl)pyrazin-2-yl]amino}-1,2-thiazole-4-carboxamide] yielded an IC50 of over 20 µM.
For `Cc1nsc(Nc2cnc(C(F)(F)F)cn2)c1C(=O)Nc1ccc(OC2CCN(CC(F)(F)F)C2)nc1` (stereo not shown) [Example 297, 3-methyl-N-(6-{[1-(2,2,2-trifluoroethyl)pyrrolidin-3-yl]oxy}pyridin-3-yl)-5-{[5-(trifluoromethyl)pyrazin-2-yl]amino}-1,2-thiazole-4-carboxamide], the IC50 was 12 µM.
Molecule `Cc1nsc(Nc2cc(C#N)ccn2)c1C(=O)Nc1cccc(C(=O)NC(C)C)c1` [Example 254, 5-[(4-cyanopyridin-2-yl)amino]-N-[3-(isopropylcarbamoyl)phenyl]-3-methyl-1,2-thiazole-4-carboxamide] has an IC50 of over 20 µM.
`Cc1nsc(Nc2cnc3ccccc3n2)c1C(=O)Nc1cccc(NS(=O)(=O)C2CCN(CC(F)(F)F)C2)c1` (stereo not shown) [Example 289, 3-methyl-5-(quinoxalin-2-ylamino)-N-[3-({[1-(2,2,2-trifluoroethyl)pyrrolidin-3-yl]sulfonyl}amino)phenyl]-1,2-thiazole-4-carboxamide] was tested, and the IC50 was over 20 µM.
With `Cc1nsc(Nc2cnc3ccccc3n2)c1C(=O)Nc1cccc(NS(=O)(=O)C2CCN(CCC(F)(F)F)CC2)c1` [Example 283, 3-methyl-5-(quinoxalin-2-ylamino)-N-[3-({[1-(3,3,3-trifluoropropyl)piperidin-4-yl]sulfonyl}amino)phenyl]-1,2-thiazole-4-carboxamide] the IC50 was over 20 µM.
